In US11181534B2, “Routine laboratory and point-of-care (POC) testing for hemostasis” (Bloodworks, priority 2014, dated 2021):

Assays:
Factor VIII (FVIII) [1] = test: FVIII Activity by manual one-stage assay in patient plasma; type: in vivo, human; conditions: FVIII Case #3, 45 min after Stimate; baseline 18.9%
Protocol: (§1) Blood samples were collected by venipuncture in 3.2% sodium citrate anticoagulant. Platelet poor plasma was separated by centrifugation per clinical protocols, snap frozen, and stored at −80 C until tested. FVIII Antigen was measured by ELISA (FVIII-AG ELISA kit, Affinity Biologicals) per the manufacturer's instructions. FVIII Activity was measured by manual one-stage assay per the clinical protocol of the Bloodworks Northwest Hemostasis Reference Laboratory. The Koate DVI (Kedrion) coefficient (in vivo) was ascertained by measuring FVIII Antigen and FVIII Activity samples from patients undergoing clinically-indicated Koate DVI kinetic studies and calculating the Activity:Antigen ratio. Pooled normal plasma (Precision BioLogic), normal reference plasmas (Precision BioLogic, Siemens), abnormal reference plasma (Siemens), samples from healthy blood donors, and FVIII-deficient plasma (Affinity Biologicals, Siemens) were used in assays as standards and controls.

Factor VIII (FVIII) [2] = test: FVIII Antigen by ELISA (FVIII-AG ELISA kit) in patient plasma; type: in vivo, human
Protocol: as §1

Factor IX (FIX) [3] = test: FIX Activity by manual one-stage assay in patient plasma; type: in vivo, human; conditions: FIX Case #1, at presentation, 6 days after Benefix
Protocol: (§2) Blood samples were collected by venipuncture in 3.2% sodium citrate anticoagulant. Platelet poor plasma was separated by centrifugation per clinical protocols, snap frozen, and stored at −80 C until tested. FIX Antigen was measured by FIX-EIA paired antibody ELISA (Affinity Biologicals). FIX-deficient plasma (Affinity Biologicals) was used as a negative control and diluent. FIX Activity was performed via manual one-stage assay per the clinical laboratory protocols of the Bloodworks Northwest Hemostasis Reference Laboratory. FIX-deficient plasma (Siemens) was used as a diluent and negative control. The Benefix (Wyeth Pharmaceuticals) coefficient was ascertained by serial dilution of Benefix into FIX-deficient plasma (Affinity Biologicals), performance of both the FIX Antigen and Activity assays, and calculating the Activity:Antigen ratio.

Factor IX (FIX) [4] = test: FIX Antigen by FIX-EIA paired antibody ELISA in patient plasma; type: in vivo, human; conditions: FIX Case #1, patient with severe Hemophilia B, at presentation, 6 days after Benefix
Protocol: as §2

Factor IX (FIX) [5] = test: FIX coefficient, Activity:Antigen ratio (dilution into FIX-deficient plasma / normal plasma standards); type: biochemical, human
Protocol: as §2
The patient then received a dose of Alprolix followed by a blood draw 24 hours later. The Alprolix drug coefficient was not able to be experimentally determined due to limited drug availability. In lieu of this, we used normal plasma standards and experimentally determined the coefficient of normal human FIX to be 1.1. We then assumed the drug coefficient for Alprolix to be similar to naturally occurring FIX, and determined the patient's FIX level by: FIX Activity=(Base FIX Activity)+[(Measured FIX Antigen−Base FIX Antigen)×(Patient's FIX Coefficient)].

Factor XI (FXI) = test: Factor XI Coefficient, serial dilution of normal reference plasma into FXI-deficient plasma; type: biochemical, human; conditions: plasma pooled from healthy subjects
Protocol: Commercially-available normal and abnormal (FVII- and FXI-deficient) plasmas (Siemens) were obtained to be tested as experimental samples. Factor VII and Factor XI Coefficients were determined by serial dilution of normal reference plasma (Precision BioLogic) into FVII-deficient and FXI-deficient plasmas (Affinity Biologicals).
We tested two plasmas, one with normal levels of FXI, and one deficient in FXI (approximately 1/3 FXI activity). We experimentally determined using plasma pooled from healthy subjects that the coefficient of natural FXI is 0.82. The FXI Activity was then determined by: FXI Activity=[(Measured FXI Antigen)×(FXI Coefficient)].

NC(=O)CC[C@@H]1NC(=O)[C@H](Cc2ccccc2)NC(=O)[C@H](Cc2ccc(O)cc2)NC(=O)CCSSC[C@@H](C(=O)N2CCC[C@H]2C(=O)N[C@H](CCCN=C(N)N)C(=O)NCC(N)=O)NC(=O)[C@H](CC(N)=O)NC1=O [Stimate]
FVIII Activity (Measured) (Factor VIII (FVIII) [1]): 50.76% | FVIII Activity (Calculated) (Factor VIII (FVIII) [2]; FVIII Case #3, 45 min after Stimate, calculated with patient's FVIII coefficient 1.97, baseline 18.9%): 48.92% | Measured FVIII Antigen (FVIII:Ag) (after Stimate) (Factor VIII (FVIII) [2]; FVIII Case #3, patient with mild Hemophilia A, 45 min after Stimate, baseline 9.59 IU/dL): 24.83 IU/dL

Benefix: a different FIX replacement therapy (Wyeth Pharmaceuticals / Pfizer)
FIX Activity (Measured) (Factor IX (FIX) [3]): 4% | Measured FIX Antigen (FIX:Ag) (Factor IX (FIX) [4]): 8.0 IU/dL | drug coefficient (FIX Activity:Antigen ratio) (Factor IX (FIX) [5]; serial dilution of Benefix into FIX-deficient plasma): 2.1

natural FXI: FXI of plasma pooled from healthy subjects
coefficient of natural FXI (Factor XI (FXI)): 0.82

normal human FIX: naturally occurring FIX in normal plasma standards
coefficient of normal human FIX (Factor IX (FIX) [5]; normal plasma standards): 1.1
